In ChEMBL document CHEMBL4118139, “Novel naphthyloxy derivatives - Potent histamine H3 receptor ligands. Synthesis and pharmacological evaluation” (Bioorg Med Chem, 2018):
The source made the active and inactive calls. The calls are words filed in the database; no cut-off is given here.

Legend:
Mus musculus [1] = assay: Cognition enhancing effect in albino Swiss CD-1 mouse assessed as reversal of scopolamine-induced amnesia at 20 to 30 mg/kg, ip treated 30 mins prior to acquisition trial followed by scopolamine challenge immediately after acquisition trial by passive avoidance test (reference value: 39.31 +/- 4.01 secs); type: functional, organism-based
Histamine H3 receptor = Histamine H3 receptor (Homo sapiens, UniProt Q9Y5N1); assay: Antagonist activity at human H3 receptor expressed in HEK293 cells assessed as inhibition of RAMH-induced reduction of forskolin-stimulated cAMP accumulation after 30 mins by Ulight-based TR-FRET assay; type: functional, cell-based
Histamine H3 receptor, sequence (Q9Y5N1 whole entry): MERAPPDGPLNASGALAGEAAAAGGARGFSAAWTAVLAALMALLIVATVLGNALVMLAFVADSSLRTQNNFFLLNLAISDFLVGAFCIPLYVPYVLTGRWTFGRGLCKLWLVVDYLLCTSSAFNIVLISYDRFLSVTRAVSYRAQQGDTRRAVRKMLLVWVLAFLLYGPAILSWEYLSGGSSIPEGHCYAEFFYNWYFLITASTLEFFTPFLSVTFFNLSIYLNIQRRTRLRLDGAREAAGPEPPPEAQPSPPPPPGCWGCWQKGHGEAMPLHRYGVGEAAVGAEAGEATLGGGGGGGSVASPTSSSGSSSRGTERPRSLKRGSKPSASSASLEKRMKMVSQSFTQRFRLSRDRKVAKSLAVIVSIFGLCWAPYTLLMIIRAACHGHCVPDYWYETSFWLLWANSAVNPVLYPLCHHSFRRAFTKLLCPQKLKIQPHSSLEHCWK

[2] = biological target: Histamine H1 receptor (Cavia porcellus) (UniProt P31389); assay: Agonist activity at histamine H1 receptor in guinea-pig ileum assessed as induction of contractions at 1 to 3 uM after 15 mins; type: functional
Histamine H1 receptor (Cavia porcellus), sequence (P31389 whole entry): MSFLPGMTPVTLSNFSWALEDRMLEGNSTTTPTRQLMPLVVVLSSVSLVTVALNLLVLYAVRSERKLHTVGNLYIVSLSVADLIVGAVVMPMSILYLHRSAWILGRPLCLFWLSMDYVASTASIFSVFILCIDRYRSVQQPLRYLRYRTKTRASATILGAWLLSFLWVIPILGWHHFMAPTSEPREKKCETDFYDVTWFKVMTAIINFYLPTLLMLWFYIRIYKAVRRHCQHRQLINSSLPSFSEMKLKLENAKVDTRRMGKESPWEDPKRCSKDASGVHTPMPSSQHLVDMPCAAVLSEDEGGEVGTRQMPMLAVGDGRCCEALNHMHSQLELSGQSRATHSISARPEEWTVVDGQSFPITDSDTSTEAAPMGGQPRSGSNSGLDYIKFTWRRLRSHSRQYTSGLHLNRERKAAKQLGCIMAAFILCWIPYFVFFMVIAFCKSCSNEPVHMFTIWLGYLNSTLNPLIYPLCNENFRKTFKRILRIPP

[3] = biological target: Muscarinic acetylcholine receptor M3 (Cavia porcellus) (UniProt Q8VH26); assay: Agonist activity at muscarinic M3 receptor in guinea-pig ileum assessed as induction of contractions at 1 to 3 uM after 15 mins; type: functional
Muscarinic acetylcholine receptor M3 (Cavia porcellus), sequence (Q8VH26 1-587): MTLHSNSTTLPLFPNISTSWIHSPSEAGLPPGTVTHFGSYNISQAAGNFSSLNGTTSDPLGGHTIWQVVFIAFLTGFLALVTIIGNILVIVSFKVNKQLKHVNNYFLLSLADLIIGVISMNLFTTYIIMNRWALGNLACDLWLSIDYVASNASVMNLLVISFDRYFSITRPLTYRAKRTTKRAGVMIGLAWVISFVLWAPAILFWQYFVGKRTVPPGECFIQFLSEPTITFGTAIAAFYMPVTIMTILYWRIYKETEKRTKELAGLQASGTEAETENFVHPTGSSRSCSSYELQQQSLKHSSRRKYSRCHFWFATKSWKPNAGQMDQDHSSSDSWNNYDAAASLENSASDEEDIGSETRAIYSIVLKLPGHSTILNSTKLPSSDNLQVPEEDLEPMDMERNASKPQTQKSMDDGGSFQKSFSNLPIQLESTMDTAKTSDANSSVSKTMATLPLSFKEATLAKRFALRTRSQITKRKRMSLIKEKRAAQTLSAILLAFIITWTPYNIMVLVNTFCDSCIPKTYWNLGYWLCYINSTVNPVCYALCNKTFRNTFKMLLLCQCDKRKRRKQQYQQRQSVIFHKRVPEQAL

Rattus norvegicus [4] = assay: Anticonvulsant activity in Sprague-Dawley rat assessed as protection against maximal electroshock-induced seizures at 30 mg/kg, ip after 0.5 hrs; type: functional, organism-based
Rattus norvegicus [5] = assay: Anticonvulsant activity in Sprague-Dawley rat assessed as protection against maximal electroshock-induced seizures at 30 mg/kg, ip after 1 hr; type: functional, organism-based
Rattus norvegicus [6] = assay: Anticonvulsant activity in Sprague-Dawley rat assessed as protection against maximal electroshock-induced seizures at 30 mg/kg, ip after 0.25 hrs; type: functional, organism-based
Mus musculus [7] = assay: Anticonvulsant activity in albino CF-1 mouse assessed as protection against maximal electroshock-induced seizures at 50 mg/kg, ip after 1 hr; type: functional, organism-based
Mus musculus [8] = assay: Neurotoxicity in albino CF-1 mouse assessed as increase in subcutaneous pentylenetetrazole-induced continuous seizures at 50 mg/kg, ip measured after 1 hr; type: toxicity, organism-based; settings: in vivo
Mus musculus [9] = assay: Anticonvulsant activity in albino CF-1 mouse assessed as protection against subcutaneous pentylenetetrazole-induced seizures at 50 mg/kg, ip measured after 4 hrs; type: functional, organism-based
Rattus norvegicus [10] = assay: Anticonvulsant activity in Sprague-Dawley rat assessed as protection against maximal electroshock-induced seizures at 30 mg/kg, ip after 2 hrs; type: functional, organism-based
Mus musculus [11] = assay: Neurotoxicity in albino CF-1 mouse at 30 mg/kg, ip after 0.5 hrs by rotarod test; type: toxicity, organism-based; settings: in vivo
Mus musculus [12] = assay: Neurotoxicity in albino CF-1 mouse at 30 mg/kg, ip after 2 hrs by rotarod test; type: toxicity, organism-based; settings: in vivo
Rattus norvegicus [13] = assay: Anticonvulsant activity in Sprague-Dawley rat assessed as protection against maximal electroshock-induced seizures at 30 mg/kg, po after 0.25 hrs; type: functional, organism-based
Rattus norvegicus [14] = assay: Anticonvulsant activity in Sprague-Dawley rat assessed as protection against maximal electroshock-induced seizures at 30 mg/kg, po after 0.5 hrs; type: functional, organism-based
Rattus norvegicus [15] = assay: Anticonvulsant activity in Sprague-Dawley rat assessed as protection against maximal electroshock-induced seizures at 30 mg/kg, po after 4 hrs; type: functional, organism-based
Mus musculus [16] = assay: Neurotoxicity in albino CF-1 mouse at 65 mg/kg after 0.25 hrs by rotarod test; type: toxicity, organism-based; settings: in vivo
Mus musculus [17] = assay: Neurotoxicity in albino CF-1 mouse at 65 mg/kg after 1 hr by rotarod test; type: toxicity, organism-based; settings: in vivo
Mus musculus [18] = assay: Neurotoxicity in albino CF-1 mouse at 65 mg/kg after 2 hrs by rotarod test; type: toxicity, organism-based; settings: in vivo
Mus musculus [19] = assay: Anticonvulsant activity in albino CF-1 mouse assessed as protection against 32 mA current-induced seizure at 50 mg/kg, ip after 4 hrs by 6 Hz psychomotor test; type: functional, organism-based
Mus musculus [20] = assay: Neurotoxicity in albino CF-1 mouse at 50 mg/kg after 0.5 hrs by rotarod test; type: toxicity, organism-based; settings: in vivo
Mus musculus [21] = assay: Neurotoxicity in albino CF-1 mouse at 50 mg/kg after 1 hr by rotarod test; type: toxicity, organism-based; settings: in vivo
Mus musculus [22] = assay: Neurotoxicity in albino CF-1 mouse at 50 mg/kg after 2 hrs by rotarod test; type: toxicity, organism-based; settings: in vivo
Mus musculus [23] = assay: Anticonvulsant activity in albino CF-1 mouse assessed as protection against 44 mA current-induced seizure at 50 mg/kg, ip after 4 hrs by 6 Hz psychomotor test; type: functional, organism-based
[24] = Neurotoxicity in ip dosed Sprague-Dawley rat after 0.25 hrs by rotarod test; type: toxicity, organism-based; settings: in vivo
[25] = Neurotoxicity in po dosed Sprague-Dawley rat after 0.25 hrs by rotarod test; type: toxicity, organism-based; settings: in vivo
Mus musculus [26] = assay: Anticonvulsant activity in ip dosed albino CF-1 mouse assessed as protection against maximal electroshock-induced seizures after 1 hr; type: functional; settings: CF-1, ip
Mus musculus [27] = assay: Anticonvulsant activity in ip dosed albino CF-1 mouse assessed as protection against subcutaneous pentylenetetrazole-induced seizures measured after 1 hr; type: functional; settings: CF-1, 1 h
Rattus norvegicus [28] = assay: Anticonvulsant activity in po Sprague-Dawley rat assessed as protection against subcutaneous pentylenetetrazole-induced seizures measured after 1 hr; type: functional
Mus musculus [29] = assay: Anticonvulsant activity in ip dosed albino CF-1 mouse assessed as protection against 44 mA current-induced seizure after 0.25 hrs by 6 Hz psychomotor test; type: functional; settings: CF-1, ip
[30] = Therapeutic index, ratio of ip dosed albino CF-1 mouse TD50 to ip dosed albino CF-1 mouse ED50 for MES assay; type: toxicity, organism-based; settings: in vivo, read-out: TI
[31] = Therapeutic index, ratio of ip dosed Sprague-Dawley rat TD50 to ip dosed Sprague-Dawley rat ED50 for MES assay; type: toxicity, organism-based; settings: in vivo, read-out: TI
[32] = Therapeutic index, ratio of ip dosed albino CF-1 mouse TD50 to ip dosed albino CF-1 mouse ED50 for 44 mA current-induced 6 Hz psychomotor test; type: toxicity, organism-based; settings: in vivo, read-out: TI
Mus musculus [33] = assay: Analgesic activity in ip dosed albino Swiss CD1 mouse assessed reduction in formalin-induced inflammatory pain by measuring reduction in time spent in licking treated prior to formalin injection measured at 0 to 5 mins post formalin injection; type: functional
Mus musculus [34] = assay: Effect on spontaneous locomotor activity in ip dosed albino Swiss CD1 mouse assessed as inhibition of number of light beam crossings treated for 30 mins measured for next 30 mins in 10 min intervals; type: organism-based; settings: in vivo, 0.5 h
Mus musculus [35] = assay: Induction of sedative effect in albino Swiss CD-1 mouse at 15 mg/kg, ip; type: organism-based; settings: in vivo
[36] = biological target: D(3) dopamine receptor (Homo sapiens) (UniProt P35462); assay: Displacement of [3H]-spiperone from human dopamine D3 receptor expressed in CHO cell membranes at 1 uM relative to haloperidol
D(3) dopamine receptor (Homo sapiens), sequence (P35462 whole entry): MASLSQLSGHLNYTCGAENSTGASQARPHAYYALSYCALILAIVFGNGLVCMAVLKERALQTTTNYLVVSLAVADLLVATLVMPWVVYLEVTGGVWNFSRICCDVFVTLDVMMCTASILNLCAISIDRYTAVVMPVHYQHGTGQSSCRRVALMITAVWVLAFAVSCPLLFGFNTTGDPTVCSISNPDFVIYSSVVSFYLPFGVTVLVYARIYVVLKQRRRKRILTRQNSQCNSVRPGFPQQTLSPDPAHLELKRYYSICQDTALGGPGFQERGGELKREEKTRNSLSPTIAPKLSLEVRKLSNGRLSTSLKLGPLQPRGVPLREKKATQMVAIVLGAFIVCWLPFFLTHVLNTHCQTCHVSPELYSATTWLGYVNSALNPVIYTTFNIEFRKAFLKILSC

[37] = biological target: 5-hydroxytryptamine receptor 7 (Homo sapiens, UniProt P34969); assay: Displacement of [3H]-5-carboxyamidotryptamine from human 5-HT7 receptor expressed in HEK293 cell membranes after 1 hr
5-hydroxytryptamine receptor 7, sequence (P34969 whole entry): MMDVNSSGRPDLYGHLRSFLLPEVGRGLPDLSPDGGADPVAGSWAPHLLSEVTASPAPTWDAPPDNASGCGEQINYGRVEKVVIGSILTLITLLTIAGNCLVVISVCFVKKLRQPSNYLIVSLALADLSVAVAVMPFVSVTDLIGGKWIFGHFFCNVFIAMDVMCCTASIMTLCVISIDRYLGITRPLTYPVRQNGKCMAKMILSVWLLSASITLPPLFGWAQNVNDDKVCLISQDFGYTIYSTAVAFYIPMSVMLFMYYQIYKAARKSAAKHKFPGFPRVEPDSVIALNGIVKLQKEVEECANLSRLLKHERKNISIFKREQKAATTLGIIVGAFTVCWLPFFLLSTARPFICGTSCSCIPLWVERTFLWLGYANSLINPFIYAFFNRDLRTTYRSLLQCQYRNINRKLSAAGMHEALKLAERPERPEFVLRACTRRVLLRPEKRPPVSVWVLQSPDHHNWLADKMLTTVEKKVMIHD

HEK293 = assay: Cytotoxicity against HEK293 cells assessed as reduction in cell viability after 72 hrs by MTS assay; type: cell-based; settings: Homo sapiens, HEK293, 72 h
IMR-32 = assay: Cytotoxicity against human IMR32 cells assessed as reduction in cell viability after 72 hrs by MTS assay; type: cell-based; settings: IMR-32, 72 h
HepG2 = assay: Cytotoxicity against human HepG2 cells assessed as reduction in cell viability after 72 hrs by MTS assay; type: cell-based; settings: HepG2, 72 h
Salmonella typhimurium = assay: Mutagenicity in Salmonella typhimurium TA100 assessed as increase in number of revertants at 1 uM after 90 mins by Ames test; type: toxicity, organism-based; settings: salmonella enterica subsp. enterica serovar typhimurium, 1.5 h

## c1ccc2c(OCCCCCN3CCCCC3)cccc2c1
Mus musculus [1]
  Activity: Active
Histamine H3 receptor
  IC50: 165 nM
  inhibition: Dose-dependent effect
[2]
  Activity: inactive
[3]
  Activity: inactive
Rattus norvegicus [4]
  Activity: Active
Rattus norvegicus [5]
  Activity: Active
Rattus norvegicus [6]
  Activity: Active
Mus musculus [7]
  Activity: Active
Mus musculus [8]
  Activity: Non-Toxic
Mus musculus [9]
  Activity: inactive
Rattus norvegicus [10]
  Activity: Active
Mus musculus [11]
  Activity: Non-Toxic
Mus musculus [12]
  Activity: Non-Toxic
Rattus norvegicus [13]
  Activity: inactive
Rattus norvegicus [14]
  Activity: inactive
Rattus norvegicus [15]
  Activity: inactive
Mus musculus [16]
  Activity: Non-Toxic
Mus musculus [17]
  Activity: Non-Toxic
Mus musculus [18]
  Activity: Non-Toxic
Mus musculus [19]
  Activity: inactive
Mus musculus [20]
  Activity: Non-Toxic
Mus musculus [21]
  Activity: Non-Toxic
Mus musculus [22]
  Activity: Non-Toxic
Mus musculus [23]
  Activity: inactive
[24]
  TD50 at 0.25 h: 60.6 mg/kg
[25]
  TD50 at 0.25 h: > 500 mg/kg
Mus musculus [26]
  ED50: 19.2 mg/kg
Mus musculus [27]
  ED50: > 100 mg/kg
Rattus norvegicus [28]
  ED50: > 250 mg/kg
Mus musculus [29]
  ED50: 57.2 mg/kg
[30]
  selectivity ratio: 4.9
[31]
  selectivity ratio: 3.4
[32]
  selectivity ratio: 1.6
Mus musculus [33]
  ED50: 31.1 mg/kg
Mus musculus [34]
  ED50: 11.43 mg/kg
Mus musculus [35]
  Activity: Toxic
[36]
  inhibition: 12%
[37]
  Ki: 2310 nM
HEK293
  IC50: > 50000 nM
IMR-32
  IC50: > 50000 nM
HepG2
  IC50: > 50000 nM
Salmonella typhimurium
  Activity: Non-Toxic
